Reference: patent US20160008490A1, “METAL CHELATE COMPOUNDS FOR BINDING TO THE PLATELET SPECIFIC GLYCOPROTEIN IIB/IIIA” (BAYER PHARMA AKTIENGESELLSCHAFT, priority 2013, published 2016)

Columns and labels:
[1] = biological target: T1, human GP IIb/IIIa receptor (Homo sapiens, UniProt P05106+P08514); experiment: GPIIb/IIIa affinity assay (displacement of tritiated reference compound from immobilized receptor); type: binding; settings: purified human GPIIb/IIIa, 60 nM 3H-labeled reference compound, 1 hour at room temperature
T1 construct: human GPIIb/IIIa purified from human platelets was immobilized on a 96-well solid plate; purchased Enzyme Research Laboratories Inc. (South Bend, Ind.); host or cells: human platelets (natural source, detergent-solubilised)
Experimental: Affinity assay: In the first step human GPIIb/IIIa purified from human platelets was immobilized on a 96-well solid plate. After 48 hours the plates were washed and the unspecific binding sites were blocked with Roti®-Block. 2. In the next step, the plates were simultaneously incubated with a tritium labeled known GPIIb/IIIa binder (^3H) mixed with increasing concentrations of the novel compounds (inhibitor). The higher the affinity of the inhibitor, the lower the bound fraction of the tritiated known GPIIb/IIIa binder (^3H) was. The fraction of tritiated compound (^3H), which is not displaced by inhibitor, was measured in a microplate scintillation counter.
Purified human glycoprotein IIb/IIIa (20 mM Tris-HCl, 0.1 M NaCl, 0.1% Triton X-100, 1 mM CaCl2, 0.05% NaN3, 50% Glycerol, pH 7.4) was purchased from Enzyme Research Laboratories Inc. (South Bend, Ind.). The GPIIb/IIIa receptor was diluted in phosphate-buffered saline (Dulbecco's Phosphate Buffered Saline (D-PBS (+)) with calcium and magnesium, GIBCO®, Invitrogen) with 0.01% bovine serum albumin (albumin from bovine serum—lyophilized powder, 96%, Sigma).
The GPIIb/IIIa receptor was immobilized 48 hours at least (100 μL per well, 48 to maximum 96 hours) on a 96-well solid plate (Immuno Plate MaxiSorp™, Nunc, Roskilde, Denmark) at 277 K to 280 K and at a concentration of 0.1 μg per well to 1 μg per well. As negative control one row of the plate (n=8) was incubated just with 2% bovine serum albumin (200 μL per well, albumin from bovine serum—lyophilized powder, ≧96%, Sigma, diluted in D-PBS (+)).
After washing three times with the wash buffer (230 μL per well, Dulbecco's Phosphate Buffered Saline (D-PBS (−)) contains no calcium or magnesium, GIBCO®, Invitrogen) residual exposed plastic and unspecific binding sites were blocked by incubating the plate with a special blocking solution (200 μL per well, Roti®-Block, Car Roth GmbH Co KG, Karlsruhe) containing 2% bovine serum albumin (Albumin from bovine serum—lyophilized powder, ≧96%, Sigma) 1 hour at room temperature.
After washing three times with the wash buffer 50 μL of tritiated reference compound (60 nM, ^3H-labeled compound) and 50 μL of novel compound (inhibitor) were simultaneously added to each well and incubated for 1 hour at room temperature. Several concentrations of each novel inhibitor (0.1, 1, 2, 5, 10, 20 50, 100, 200, 500, 1000, 2000, 5000, 10000 and 20000 nM) were investigated. At each concentration of inhibitor a fourfold determination was performed.
The maximum value of tritiated reference compound was determined without addition of inhibitor (n=8). To exclude unspecific binding of ^3H— reference compound wells without glycoprotein receptors were used as negative controls (n=12, identically treated just without GPIIb/IIIa receptors).
After one hour the plate was washed three times with phosphate-buffered saline (200 μL per well, Dulbecco's Phosphate Buffered Saline (D-PBS (+)), GIBCO®, Invitrogen). Following 140 μL of liquid scintillation cocktail (MicroScint™ 40 aqueous, Perkin Elmer) was added to each well. After 15 min at room temperature the plates were measured at the microplate scintillation counter (TopCount NXT v2.13, Perkin Elmer, Packard Instrument Company).
In the first step human glycoprotein IIb/IIIa, which is purified from human platelets, was immobilized on a 96-well solid plate. After 48 hours at least the plates were washed and the unspecific binding sites were blocked with Roti®-Block. In the next step, the plates were simultaneously incubated with a tritium labeled reference compound and the novel small molecule compound (inhibitor). The higher the affinity of the inhibitor, the smaller is the bound fraction of reference compound. The fraction of tritiated reference compound, which is not displaced by inhibitor, was measured at a microplate scintillation counter. The higher the affinity of the inhibitor, the smaller is the bound fraction of tritium-labeled reference compound. […]

[2] = system: human activated platelets; experiment: Binding of investigated compounds to human activated platelets (ICP-MS of Gd in pellet and supernatant); type: cell-based; settings: ADP-activated platelet-rich plasma, 20 minutes
Experimental: For each experiment fresh blood was taken from a volunteer using 10 mL citrate-tubes (Sarstedt S-Monovette 02.1067.001, 10 mL, Citrate 3.13%). The 10 mL citrate-tubes were carefully inverted 10 times to mix blood and anticoagulant. The tubes were stored in an incubator at a temperature of 37° C. until centrifugation (Heraeus miniTherm CTT with integrated rotation- and turning device, turning speed: 19 rotations per minute, Heraeus Instruments GmbH, Hanau/Germany).
For plasma preparation tube centrifugation was carried out for 15 minutes at 1811 g at room temperature (Eppendorf, Centrifuge 5810R). Blood was centrifuged 15 minutes at 201 g at room temperature to produce platelet-rich plasma. The tubes were stored for 30 min at room temperature to get a better separation. The separated platelet-rich plasma was finally centrifuged for further 3 min at 453 g to remove the remaining erythrocytes. The platelet-rich plasma was activated using a final concentration of 5 μM Adenosindiphosphate (ADP, Sigma). The activated platelet-rich plasma was incubated 20 minutes with different concentrations of gadolinium-labeled compound and subsequently was centrifuged 3 minutes at 1360 g. 20 μL of incubation solution was taken to determine the concentration (n=3). […] The gadolinium concentration of supernatant and pellet was determined using an inductively coupled plasma mass spectrometry (ICP-MS Agilent 7500a).
The results for incubation concentration of 1 μM gadolinium-labeled compound are summarized in table 3 (in comparison to Gadovist® standard dose: 100 μmol Gd/kg body weight).

[3] = incubation concentration 1 μM molecule, pellet washed
[4] = incubation concentration 1 μM molecule, pellet was not washed

T1 sequence (P08514 32-887 limits assumed): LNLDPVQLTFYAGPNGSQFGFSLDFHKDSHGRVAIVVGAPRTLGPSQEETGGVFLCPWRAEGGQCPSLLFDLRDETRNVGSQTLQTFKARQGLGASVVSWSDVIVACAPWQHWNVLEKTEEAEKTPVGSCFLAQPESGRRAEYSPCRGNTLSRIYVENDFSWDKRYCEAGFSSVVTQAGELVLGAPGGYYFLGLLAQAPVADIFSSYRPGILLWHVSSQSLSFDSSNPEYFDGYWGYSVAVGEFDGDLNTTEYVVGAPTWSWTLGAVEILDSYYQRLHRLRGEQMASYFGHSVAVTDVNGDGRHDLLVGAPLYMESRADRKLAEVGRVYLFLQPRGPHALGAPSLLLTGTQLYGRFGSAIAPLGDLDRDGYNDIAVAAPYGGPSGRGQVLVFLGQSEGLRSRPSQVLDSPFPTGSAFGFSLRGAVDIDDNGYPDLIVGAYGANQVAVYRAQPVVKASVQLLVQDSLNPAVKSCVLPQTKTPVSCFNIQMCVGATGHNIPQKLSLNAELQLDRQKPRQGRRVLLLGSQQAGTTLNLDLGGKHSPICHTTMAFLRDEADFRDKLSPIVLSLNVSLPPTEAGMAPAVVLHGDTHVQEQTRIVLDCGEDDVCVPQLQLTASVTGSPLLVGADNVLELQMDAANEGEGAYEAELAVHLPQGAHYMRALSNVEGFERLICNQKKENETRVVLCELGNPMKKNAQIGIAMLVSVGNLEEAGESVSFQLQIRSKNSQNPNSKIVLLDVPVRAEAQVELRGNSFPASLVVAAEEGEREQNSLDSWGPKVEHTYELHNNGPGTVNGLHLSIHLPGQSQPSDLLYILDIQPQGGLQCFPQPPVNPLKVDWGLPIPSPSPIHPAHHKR
T1 sequence (P08514 891-1039 partner limits assumed): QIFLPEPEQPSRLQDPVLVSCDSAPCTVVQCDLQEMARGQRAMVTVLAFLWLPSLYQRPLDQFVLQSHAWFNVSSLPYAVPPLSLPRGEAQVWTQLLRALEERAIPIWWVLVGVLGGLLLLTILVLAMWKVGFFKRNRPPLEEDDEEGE
T1 sequence (P05106 27-788): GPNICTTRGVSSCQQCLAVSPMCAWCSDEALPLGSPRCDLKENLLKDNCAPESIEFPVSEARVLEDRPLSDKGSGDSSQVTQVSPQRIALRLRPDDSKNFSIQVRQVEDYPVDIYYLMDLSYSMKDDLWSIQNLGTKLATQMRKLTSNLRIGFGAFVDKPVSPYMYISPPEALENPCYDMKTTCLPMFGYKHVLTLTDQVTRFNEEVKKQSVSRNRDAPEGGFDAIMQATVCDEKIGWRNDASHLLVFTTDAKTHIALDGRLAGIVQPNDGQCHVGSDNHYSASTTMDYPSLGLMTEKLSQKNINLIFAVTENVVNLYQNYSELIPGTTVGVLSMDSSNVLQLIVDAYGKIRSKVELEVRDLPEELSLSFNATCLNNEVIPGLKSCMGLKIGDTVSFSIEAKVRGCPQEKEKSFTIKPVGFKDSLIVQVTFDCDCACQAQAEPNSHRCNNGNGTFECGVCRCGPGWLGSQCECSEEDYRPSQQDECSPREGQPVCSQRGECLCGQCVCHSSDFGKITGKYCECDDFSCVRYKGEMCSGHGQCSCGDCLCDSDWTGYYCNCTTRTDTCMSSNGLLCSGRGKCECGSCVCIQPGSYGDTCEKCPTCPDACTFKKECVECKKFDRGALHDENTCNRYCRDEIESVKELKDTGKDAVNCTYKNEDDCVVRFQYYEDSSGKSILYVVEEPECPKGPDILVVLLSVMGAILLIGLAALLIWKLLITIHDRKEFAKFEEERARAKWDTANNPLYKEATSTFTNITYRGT

Row | SMILES | IC50 [1] [nM] | Concentration within platelet pellet [2, 3] [μM Gd] | Concentration within platelet pellet [2, 4] [μM Gd] | Concentration within platelet pellet ([2]; incubation concentration 0.8 μM molecule, pellet washed) [μM Gd]
1 | C[C@@H](C(=O)NCC(=O)OCCC#Cc1cncc([C@H](CC(=O)O)NC(=O)[C@@H]2CCCN(C(=O)CCC3CCNCC3)C2)c1)N1CCN(CC(=O)O)CCN(CC(=O)O)CCN(CC(=O)O)CC1 [Example 1, Gadolinium 2,2′,2″-(10-{(2S)-1-[(2-{[4-(5-{(1S)-2-carboxy-1-[({(3R)-1-[3-(piperidin-4-yl)-propanoyl]piperidin-3-yl}carbonyl)amino]ethyl}pyridin-3-yl)but-3-yn-1-yl]oxy}-2-oxo-ethyl)amino]-1-oxopropan-2-yl}-1,4,7,10-tetraazacyclododecane-1,4,7-triyl)triacetate] | 29 | – | – | –
2 | CC(C(=O)NCC(=O)NCC(NC(=O)CNC(=O)C(C)N1CCN(CC(=O)O)CCN(CC(=O)O)CCN(CC(=O)O)CC1)C(=O)NCC(NC(=O)C(CNC(=O)CNC(=O)C(C)N1CCN(CC(=O)O)CCN(CC(=O)O)CCN(CC(=O)O)CC1)NC(=O)CNC(=O)C(C)N1CCN(CC(=O)O)CCN(CC(=O)O)CCN(CC(=O)O)CC1)C(=O)NCCCCc1cccc(CCc2cncc([C@H](CC(=O)O)NC(=O)[C@@H]3CCCN(C(=O)CCC4CCNCC4)C3)c2)c1)N1CCN(CC(=O)O)CCN(CC(=O)O)CCN(CC(=O)O)CC1 (stereo partly drawn) [Example 9, Tetragadolinium 2,3-bis({2,3-bis[(N-{2-[4,7,10-tris(carboxylatomethyl)-1,4,7,10-tetraazacyclododecan-1-yl]propanoyl}glycyl)amino]propanoyl}amino)-N-(4-{3-[(5-{(1S)-2-carboxy-1-[({(3R)-1-[3-(piperidin-4-yl)propanoyl]piperidin-3-yl}carbonyl)amino]ethyl}pyridin-3-yl)ethyl]phenyl}butyl)propanamide] | 32 | – | – | 21.1 ± 9.6
3 | CC(C(=O)NCC(=O)NCC(NC(=O)CNC(=O)C(C)N1CCN(CC(=O)O)CCN(CC(=O)O)CCN(CC(=O)O)CC1)C(=O)NCC(NC(=O)C(CNC(=O)CNC(=O)C(C)N1CCN(CC(=O)O)CCN(CC(=O)O)CCN(CC(=O)O)CC1)NC(=O)CNC(=O)C(C)N1CCN(CC(=O)O)CCN(CC(=O)O)CCN(CC(=O)O)CC1)C(=O)NCCCc1ccc(C#Cc2cncc([C@H](CC(=O)O)NC(=O)[C@@H]3CCCN(C(=O)CCC4CCNCC4)C3)c2)cc1)N1CCN(CC(=O)O)CCN(CC(=O)O)CCN(CC(=O)O)CC1 (stereo partly drawn) [Example 11, Tetragadolinium 2,3-bis({2,3-bis[(N-{2-[4,7,10-tris(carboxylatomethyl)-1,4,7,10-tetraaza-cyclododecan-1-yl]propanoyl}glycyl)amino]propanoyl}amino)-N-(3-{4-[(5-{(1S)-2-carboxy-1-[({(3R)-1-[3-(piperidin-4-yl)propanoyl]piperidin-3-yl}carbonyl)amino]ethyl}-pyridin-3-yl)ethynyl]phenyl}propyl)propanamide] | 26 | 19.9 ± 0.9 | – | –

Stronger by IC50 [1], values ahead:

Row | IC50 [1] [nM] | SMILES | Concentration within platelet pellet [2, 3] [μM Gd] | Concentration within platelet pellet [2, 4] [μM Gd] | Concentration within platelet pellet ([2]; incubation concentration 0.8 μM molecule, pellet washed) [μM Gd]
4 | 16 | CC(C(=O)NCC(=O)NC[C@H](NC(=O)CNC(=O)C(C)N1CCN(CC(=O)O)CCN(CC(=O)O)CCN(CC(=O)O)CC1)C(=O)NCCCc1ccc(C#Cc2cncc([C@H](CC(=O)O)NC(=O)[C@@H]3CCCN(C(=O)CCC4CCNCC4)C3)c2)cc1)N1CCN(CC(=O)O)CCN(CC(=O)O)CCN(CC(=O)O)CC1 (stereo partly drawn) [Example 10, Digadolinium N-{2-[4,7,10-tris(carboxylatomethyl)-1,4,7,10-tetraazacyclododecan-1-yl]-propanoyl}glycyl-N-(3-{4-[(5-{(1S)-2-carboxy-1-[({(3R)-1-[3-(piperidin-4-yl)propanoyl]-piperidin-3-yl}carbonyl)amino]ethyl}pyridin-3-yl)ethynyl]phenyl}propyl)-3-[(N-{2-[4,7,10-tris(carboxylatomethyl)-1,4,7,10-tetraazacyclododecan-1-yl]propanoyl}glycyl)-amino]alaninamide] | 13.9 ± 0.3 | – | –
5 | 24 | C[C@@H](C(=O)NCC(=O)NCCC#Cc1cncc([C@H](CC(=O)O)NC(=O)[C@@H]2CCCN(C(=O)CCC3CCNCC3)C2)c1)N1CCN(CC(=O)O)CCN(CC(=O)O)CCN(CC(=O)O)CC1 [Example 2, Gadolinium 2,2′,2″-(10-{(2S)-1-[(2-{[4-(5-{(1S)-2-carboxy-1-[({(3R)-1-[3-(piperidin-4-yl)-propanoyl]piperidin-3-yl}carbonyl)amino]ethyl}pyridin-3-yl)but-3-yn-1-yl]amino}-2-oxo-ethyl)amino]-1-oxopropan-2-yl}-1,4,7,10-tetraazacyclododecane-1,4,7-triyl)triacetate] | – | 8.1 ± 0.6 | –
6 | 13 | C[C@@H](C(=O)NCC(=O)NCCCCCCc1ccc(C#Cc2cncc([C@H](CC(=O)O)NC(=O)[C@@H]3CCCN(C(=O)CCC4CCNCC4)C3)c2)cc1)N1CCN(CC(=O)O)CCN(CC(=O)O)CCN(CC(=O)O)CC1 [Example 3, Gadolinium 2,2′,2″-{10-[(2S)-1-({2-[(6-{4-[(5-{(1S)-2-carboxy-1-[({(3R)-1-[3-(piperidin-4-yl)propanoyl]piperidin-3-yl}carbonyl)amino]ethyl}pyridin-3-yl)ethynyl]phenyl}hexyl)-amino]-2-oxoethyl}amino)-1-oxopropan-2-yl]-1,4,7,10-tetraazacyclododecane-1,4,7-triyl}triacetate] | – | 8.3 ± 2.1 | –
7 | 25 | C[C@@H](C(=O)NCC(=O)NCCCCCCc1ccc(CCc2cncc([C@H](CC(=O)O)NC(=O)[C@@H]3CCCN(C(=O)CCC4CCNCC4)C3)c2)cc1)N1CCN(CC(=O)O)CCN(CC(=O)O)CCN(CC(=O)O)CC1 [Example 4, Gadolinium 2,2′,2″-{10-[(2S)-1-({2-[(6-{4-[(5-{(1S)-2-carboxy-1-[({(3R)-1-[3-(piperidin-4-yl)propanoyl]piperidin-3-yl}carbonyl)amino]ethyl}pyridin-3-yl)ethyl]phenyl}hexyl)-amino]-2-oxoethyl}amino)-1-oxopropan-2-yl]-1,4,7,10-tetraazacyclododecane-1,4,7-triyl}triacetate] | 3.8 ± 0.2 | – | –
